According to patent US5446057A, “Substituted tetrahydropyridine and piperidine carboxylic acids as muscarinic antagonists” (priority 1993, dated 1995):

Legend:
[1] = tested on: M2 receptors; conditions: literature; cited from earlier work
[2] = target: T1, m1 receptor (Homo sapiens, UniProt P11229); assay: [3H]-NMS receptor binding using membranes from CHO cells expressing cloned human muscarinic receptor m1; conditions: [3H]-NMS 100 pM, pH 7.4, 120 minutes at 25° C.
T1 construct: expressed in transfected cells; host or cells: CHO cells (membranes)
T1 sequence (P11229 1-460): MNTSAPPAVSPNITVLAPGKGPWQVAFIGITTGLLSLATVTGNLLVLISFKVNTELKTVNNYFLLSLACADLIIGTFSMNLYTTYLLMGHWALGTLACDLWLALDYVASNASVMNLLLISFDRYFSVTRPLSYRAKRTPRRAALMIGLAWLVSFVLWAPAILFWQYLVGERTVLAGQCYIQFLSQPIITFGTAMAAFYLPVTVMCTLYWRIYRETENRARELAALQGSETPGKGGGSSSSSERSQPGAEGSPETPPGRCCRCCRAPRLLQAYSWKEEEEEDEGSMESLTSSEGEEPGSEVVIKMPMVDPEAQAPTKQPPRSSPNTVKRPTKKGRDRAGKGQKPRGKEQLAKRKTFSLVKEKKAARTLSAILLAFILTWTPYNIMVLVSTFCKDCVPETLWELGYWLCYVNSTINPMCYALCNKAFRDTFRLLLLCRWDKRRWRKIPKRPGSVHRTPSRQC
Protocol: (§1) [^3 H]-N-methylscopolamine ([^3 H]-NMS) Receptor Binding Using Membranes From Chinese Hamster Ovary (CHO) Cells Selectively Expressing One of the Five Cloned Human Muscarinic Receptors
(§2) Following membrane harvest and storage at -80° C., aliquots of membranes (approximately 10-40 μg protein) are added to 2 mL of 10 mM sodium potassium phosphate buffer, pH 7.4, containing 100 pM [^3 H]-NMS; (78.9 Ci/mmol) and the appropriate test compound. Nonspecific binding is defined as that unaffected by the inclusion of 1 μM atropine. The reaction is initiated by the addition of the membranes and allowed to proceed for 120 minutes at 25° C. with shaking. Termination of the incubation is achieved by rapid vacuum filtration through GF/B Whatman filters using a Brandel Cell Harvester with the filters being washed three times with 5 mL ice-chilled buffer. 10 mL of Beckman Ready Gel scintillation cocktail are added to the filters in vials and the samples are allowed to set overnight before vortexing and counting in a Beckman 800 scintillation counter. IC50 values are calculated using a logit equation.

[3] = target: T2, m2 receptor (Homo sapiens, UniProt P08172); assay: [3H]-NMS receptor binding using membranes from CHO cells expressing cloned human muscarinic receptor m2; conditions: [3H]-NMS 100 pM, pH 7.4, 120 minutes at 25° C.
T2 construct: expressed in transfected cells; host or cells: CHO cells (membranes)
T2 sequence (P08172 1-466): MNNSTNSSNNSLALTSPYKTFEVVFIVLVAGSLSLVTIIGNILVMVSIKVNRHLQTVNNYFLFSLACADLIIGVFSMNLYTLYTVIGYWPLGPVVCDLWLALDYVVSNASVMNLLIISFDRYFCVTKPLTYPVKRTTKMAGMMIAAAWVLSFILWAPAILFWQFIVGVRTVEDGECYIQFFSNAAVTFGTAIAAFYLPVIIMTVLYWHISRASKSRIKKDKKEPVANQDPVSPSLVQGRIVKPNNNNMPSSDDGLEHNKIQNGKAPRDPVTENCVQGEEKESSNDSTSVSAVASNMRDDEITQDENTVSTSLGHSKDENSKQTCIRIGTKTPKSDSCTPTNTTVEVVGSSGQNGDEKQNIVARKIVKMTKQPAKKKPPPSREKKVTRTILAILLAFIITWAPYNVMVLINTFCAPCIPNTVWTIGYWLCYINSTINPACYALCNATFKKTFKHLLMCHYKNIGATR
Protocol: as §1, §2

[4] = target: m3 receptor (Homo sapiens, UniProt P20309); assay: [3H]-NMS receptor binding using membranes from CHO cells expressing cloned human muscarinic receptor m3; conditions: [3H]-NMS 100 pM, pH 7.4, 120 minutes at 25° C.
Protocol: as §1, §2

[5] = target: T3, m4 receptor (Homo sapiens, UniProt P08173); assay: [3H]-NMS receptor binding using membranes from CHO cells expressing cloned human muscarinic receptor m4; conditions: [3H]-NMS 100 pM, pH 7.4, 120 minutes at 25° C.
T3 construct: expressed in transfected cells; host or cells: CHO cells (membranes)
T3 sequence (P08173 1-479): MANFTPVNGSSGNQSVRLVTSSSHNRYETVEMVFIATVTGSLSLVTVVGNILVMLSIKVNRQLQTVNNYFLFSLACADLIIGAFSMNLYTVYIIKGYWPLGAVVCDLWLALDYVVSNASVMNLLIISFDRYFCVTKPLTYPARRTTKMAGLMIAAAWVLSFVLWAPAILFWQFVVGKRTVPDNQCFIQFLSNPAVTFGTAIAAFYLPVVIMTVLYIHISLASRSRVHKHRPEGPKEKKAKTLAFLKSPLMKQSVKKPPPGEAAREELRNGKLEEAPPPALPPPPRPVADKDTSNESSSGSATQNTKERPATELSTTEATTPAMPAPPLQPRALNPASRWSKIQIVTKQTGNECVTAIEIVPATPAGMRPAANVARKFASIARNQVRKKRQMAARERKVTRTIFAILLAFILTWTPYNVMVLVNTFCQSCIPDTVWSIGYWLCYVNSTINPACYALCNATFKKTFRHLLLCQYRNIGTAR
Protocol: as §1, §2

[6] = target: T4, m5 receptor (Homo sapiens, UniProt P08912); assay: [3H]-NMS receptor binding using membranes from CHO cells expressing cloned human muscarinic receptor m5; conditions: [3H]-NMS 100 pM, pH 7.4, 120 minutes at 25° C.
T4 construct: expressed in transfected cells; host or cells: CHO cells (membranes)
T4 sequence (P08912 1-532): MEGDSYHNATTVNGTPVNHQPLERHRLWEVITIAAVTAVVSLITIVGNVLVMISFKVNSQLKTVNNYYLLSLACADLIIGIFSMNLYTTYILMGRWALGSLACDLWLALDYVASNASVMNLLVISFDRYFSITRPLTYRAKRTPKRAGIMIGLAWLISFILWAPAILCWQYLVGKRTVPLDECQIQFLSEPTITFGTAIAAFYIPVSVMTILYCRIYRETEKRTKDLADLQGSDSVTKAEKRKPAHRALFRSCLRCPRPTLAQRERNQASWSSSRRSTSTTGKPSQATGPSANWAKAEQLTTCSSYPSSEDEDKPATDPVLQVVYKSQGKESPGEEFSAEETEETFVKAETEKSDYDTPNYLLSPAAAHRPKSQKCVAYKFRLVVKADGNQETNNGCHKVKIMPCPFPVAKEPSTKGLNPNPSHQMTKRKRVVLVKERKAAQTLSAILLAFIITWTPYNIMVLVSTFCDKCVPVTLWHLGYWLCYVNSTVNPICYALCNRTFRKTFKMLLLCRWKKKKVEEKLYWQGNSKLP
Protocol: as §1, §2

[7] = target: T5, Hm1 (Homo sapiens, UniProt P11229); type: cell-based
T5 construct: expressed in transfected cells; host or cells: CHO Hm1 cells
T5 sequence (P11229 1-460): T1 sequence (P11229 1-460)
Protocol: CHO Hm1, Hm3, or Hm5 cells are grown at 37° C. with 5% CO2 in Dulbecco's modified Eagle's medium (DMEM) supplemented with 10% fetal bovine serum and 1% nonessential amino acids. […] After 48 hours, the medium is aspirated and the cells are washed 2 times with 1 mL MEM containing 10 mM LiCl. 0.5 mLMEM/LiCl then is added to each well and allowed to incubate at 37° C. for at least 15 minutes. […] For antagonist experiments, the appropriate antagonist is added simultaneously with carbachol (3 μM for m1, 5 μM for m3, and 3 μM for m5). After waiting at least 15 minutes, the TCA extract is applied to Dowex-formate columns (Biorad AG 1-X8 resin, formate form, 100-200 mesh). The wells are rinsed with 0.5 mL distilled H2 O and also applied to the columns. The columns are washed 4 times with 3 mL 5 mMmyo-inositol and then total [^3 H]-inositol phosphates are eluted into vials with two 2 mL washes of 1 mM ammonium formate containing 0.1M formic acid. Beckman Ready Gel scintillation cocktail (10 mL) is added and the samples counted in a Beckman 2800 scintillation counter. The efficacy of agonists is estimated from the maximal effect of the compounds on PI turnover (expressed as a percent of the stimulation produced by carbachol (1 mM)). EC50 and IC50 values are also calculated for both agonists and antagonists, respectively.

[8] = tested on: M3 receptors; conditions: literature; cited from earlier work
[9] = urinary incontinence; cited from earlier work
[10] = tested on: patients with effort myocardial ischemia; conditions: cited from earlier work

Chain of m3 receptor (P20309 whole entry): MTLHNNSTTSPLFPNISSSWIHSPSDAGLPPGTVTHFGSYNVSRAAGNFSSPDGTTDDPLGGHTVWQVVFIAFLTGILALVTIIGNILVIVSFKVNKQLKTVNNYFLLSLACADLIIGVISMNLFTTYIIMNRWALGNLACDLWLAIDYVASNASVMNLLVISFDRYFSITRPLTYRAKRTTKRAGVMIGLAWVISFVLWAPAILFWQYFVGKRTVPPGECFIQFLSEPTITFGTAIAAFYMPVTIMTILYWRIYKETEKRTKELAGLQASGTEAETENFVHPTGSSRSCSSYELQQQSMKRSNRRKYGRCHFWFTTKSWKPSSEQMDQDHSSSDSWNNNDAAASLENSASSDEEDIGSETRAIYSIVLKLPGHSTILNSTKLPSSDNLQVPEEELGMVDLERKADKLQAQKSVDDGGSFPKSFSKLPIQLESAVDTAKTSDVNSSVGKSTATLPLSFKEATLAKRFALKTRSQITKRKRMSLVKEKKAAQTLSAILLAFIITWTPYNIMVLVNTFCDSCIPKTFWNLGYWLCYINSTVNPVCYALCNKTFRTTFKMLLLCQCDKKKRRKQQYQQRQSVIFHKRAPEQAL

Compound	IC50 [2] [µM]	IC50 [3] [µM]	IC50 [4] [µM]	IC50 [5] [µM]	IC50 [6] [µM]	also measured
CCN(CC)CC1CCCCN1CC(=O)N1c2ccccc2C(=O)Nc2cccnc21 (stereo not shown) [AF-DX 116]	–	–	–	–	–	affinity for M2 receptors [1]: high affinity
CCN1CCC(c2ccccc2)=C(C(=O)N(C)C)C1 [C, 1-Ethyl-1,2,5,6-tetrahydro-4-phenyl-N,N-dimethyl-3-pyridinecarboxamide]	5.01	12.3	8.99	13.5	6.08	muscarinic antagonism (in words) [7]: potent antagonists
CCN1CCC(c2ccccc2)=C(C(=O)NC)C1 [D, 1-Ethyl-1,2,5,6-tetrahydro-4-phenyl-N-methyl-3-pyridinecarboxamide]	21.1	34.8	38.7	73.1	49.1	–
COC(=O)C1=C(C)CCN(C)C1 [E, 1,4-Dimethyl-1,2,5,6-tetrahydro-3-pyridinecarboxylic acid, methyl ester]	61	10.4	68	> 50	73.8	–
CCN1CCC(c2ccccc2)=C(C(=O)OC(C)C)C1 [Example 4, 1-Ethyl-1,2,5,6-tetrahydro-4-phenyl-3-pyridinecarboxylic acid, 1-methylethyl ester]	–	0.347	–	0.643	–	–
C[N+]1(C)CCC(OC(=O)C(c2ccccc2)c2ccccc2)CC1 [Example 4-DAMP, 4-diphenylacetoxy-N-methylpiperidine methobromide]	–	–	–	–	–	affinity for M3 receptors [8]: high affinity
CCN1CC=C(c2ccccc2)C(C(=O)OCCc2ccc(Cl)cc2)C1 (stereo not shown) [Example 16, 1-Ethyl-1,2,3,6-tetrahydro-4-phenyl-3-pyridinecarboxylic acid, 2-(4-chlorophenyl)ethyl ester]	–	1.29	–	1.85	–	–
CCCCC1=C(C(=O)OC)CN(CCC)CC1 [F, 1-Propyl-1,2,5,6-tetrahydro-4-butyl-3-pyridinecarboxylic acid, methyl ester]	17.5	5.34	14.9	50.7	41.2	–
O[Si](CCCN1CCCCC1)(c1ccccc1)C1CCCCC1 (stereo not shown) [hexahydrosiladifenidol]	–	–	–	–	–	affinity for M3 receptors [8]: high affinity
COc1ccccc1CNCCCCCCNCCCCCCCCNCCCCCCNCc1ccccc1OC [methoctramine]	–	–	–	–	–	affinity for M2 receptors [1]: high affinity
CCN(CC)CC#CCOC(=O)C(O)(c1ccccc1)C1CCCCC1 (stereo not shown) [oxybutynin]	–	–	–	–	–	side effects limiting use [9]: mydriasis, dry mouth
CN1CCN(CC(=O)N2c3ccccc3C(=O)Nc3cccnc32)CC1 [pirenzepine]	–	–	–	–	–	exercise tolerance [10]: improve exercise tolerance
